Measured values taken from US6673769B2, “Lanthionine bridged peptides” (priority 1991, dated 2004).
Read-outs that look alike come from different tables or passages of the source.

Experiments:
SSTR2 receptor = test: Inhibition of radioligand binding to cloned somatostatin receptor SSTR2; conditions: for IC50: cloned receptor, radioligand binding, read-out: SSTR2 receptor binding constant IC50
SSTR4 receptor = test: Inhibition of radioligand binding to cloned somatostatin receptor SSTR4; conditions: for IC50: cloned receptor, radioligand binding, read-out: SSTR4 receptor binding constant IC50
MVD (δ-receptor) = biological target: T1, MVD (δ-receptor) (Mus musculus, UniProt P32300); test: cell-based
T1 construct: The vas is then mounted under 0.5 g tension in a 5 ml organ bath; from tissue; host or cells: mouse vas deferens (Swiss Webster)
T1 sequence (P32300 whole entry): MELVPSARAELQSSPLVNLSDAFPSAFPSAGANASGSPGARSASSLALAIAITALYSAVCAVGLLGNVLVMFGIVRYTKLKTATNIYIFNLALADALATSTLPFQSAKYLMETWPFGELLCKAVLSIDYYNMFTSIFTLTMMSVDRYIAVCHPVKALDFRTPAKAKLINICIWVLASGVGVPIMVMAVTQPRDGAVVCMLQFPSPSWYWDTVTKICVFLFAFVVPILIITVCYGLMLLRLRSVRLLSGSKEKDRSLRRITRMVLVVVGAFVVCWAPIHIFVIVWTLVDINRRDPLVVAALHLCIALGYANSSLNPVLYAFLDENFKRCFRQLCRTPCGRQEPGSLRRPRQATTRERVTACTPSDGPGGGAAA

[1] = Enzymatic degradation of enkephalin analogs (half-life)
δ receptor = δ receptor (Homo sapiens, UniProt P41143); test: δ-Binding, replacement of 3H-naltrindole
δ receptor, sequence (P41143 whole entry): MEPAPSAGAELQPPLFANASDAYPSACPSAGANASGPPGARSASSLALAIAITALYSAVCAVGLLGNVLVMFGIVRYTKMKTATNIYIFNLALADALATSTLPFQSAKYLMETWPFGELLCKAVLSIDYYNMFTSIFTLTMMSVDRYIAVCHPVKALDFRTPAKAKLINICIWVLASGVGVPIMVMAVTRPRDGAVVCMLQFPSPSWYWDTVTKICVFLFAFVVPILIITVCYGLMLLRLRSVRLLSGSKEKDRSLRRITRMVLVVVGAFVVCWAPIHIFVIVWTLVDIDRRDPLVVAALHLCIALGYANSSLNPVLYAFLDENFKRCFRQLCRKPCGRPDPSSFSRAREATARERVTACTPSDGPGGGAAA

[2] = inhibition of electrically evoked twitch of mouse vas deferens, read-out: MVD IC50

Sandostatin [reference compound]
IC50 (SSTR2 receptor): 2.4 nM | IC50 (SSTR4 receptor): 0.57 nM

NC(=O)[C@H]1CSC[C@@H](NC(=O)[C@@H](N)Cc2ccc(O)cc2)C(=O)NCC(=O)N[C@@H](Cc2ccccc2)C(=O)N1 [Tyr-c[D-AlaL-Gly-Phe-D-AlaL]-NH2]
IC50 (MVD (δ-receptor); [2]): 1.67 nM

C[C@H](N)C(=O)NCC(=O)N[C@H]1CSSC[C@@H](C(=O)O)NC(=O)[C@H](CO)NC(=O)[C@H]([C@@H](C)O)NC(=O)[C@H](Cc2ccccc2)NC(=O)[C@H]([C@@H](C)O)NC(=O)[C@H](CCCCN)NC(=O)[C@H](Cc2c[nH]c3ccccc23)NC(=O)[C@H](Cc2ccccc2)NC(=O)[C@H](Cc2ccccc2)NC(=O)[C@H](CC(N)=O)NC(=O)[C@H](CCCCN)NC1=O [Somatostatin-14, reference compound]
IC50 (SSTR2 receptor): 0.28 nM | IC50 (SSTR4 receptor): 0.86 nM

H-D-Phe-c[AlaLPhe-D-Trp-Lys-Thr-AlaL]-Thr-NH2
IC50 (SSTR2 receptor): 10 nM | selectivity for SSTR4 (SSTR2/SSTR4 IC50) compared with the octapeptide alcohols (SSTR4 receptor): four times | IC50 (SSTR4 receptor): 0.5 nM

NC(=O)[C@@H]1CSSC[C@@H](NC(=O)[C@@H](N)Cc2ccc(O)cc2)C(=O)NCC(=O)N[C@@H](Cc2ccccc2)C(=O)N1 [Disulfide-enkephalin, reference compound]
half-life [1]: 5.53 h

N[C@@H](Cc1ccc(O)cc1)C(=O)N[C@@H]1CSC[C@@H](C(=O)O)NC(=O)[C@H](Cc2ccccc2)NC(=O)CNC1=O [Tyr-c[D-AlaL-Gly-Phe-L-AlaL]-OH]
IC50 (MVD (δ-receptor)): 0.16 nM | IC50 (δ receptor): 1 nM

H-D-Phe-c[AlaLPhe-D-Trp-Lys-Thr-AlaL]-Thr-ol
IC50 (SSTR2 receptor): 5 nM | IC50 (SSTR4 receptor): 1 nM

H-D-Phe-c[AlaLPhe-D-Trp-Lys-Thr-AlaL]-OH
IC50 (SSTR4 receptor): 500 nM

NC(=O)[C@@H]1CSC[C@@H](NC(=O)[C@@H](N)Cc2ccc(O)cc2)C(=O)NCC(=O)N[C@@H](Cc2ccccc2)C(=O)N1 [Lanthionine-enkephalin]
half-life [1]: 20.4 h

c[AlaL3, AlaL14]-Somatostatin-14
affinity/potency on SSTR2, in words (SSTR2 receptor): same binding affinity | IC50 (SSTR2 receptor): 0.3 nM

NC(=O)[C@@H]1CSC[C@@H](NC(=O)[C@@H](N)Cc2ccc(O)cc2)C(=O)NCC(=O)N[C@@H](Cc2ccccc2)C(=O)N1 [Tyr-c[D-AlaL-Gly-Phe-L-AlaL]-NH2]
IC50 (MVD (δ-receptor); [2]): 0.54 nM | IC50 (δ receptor): 7 nM
